Test results published in patent US8895695B2, “Template-fixed beta-hairpin peptidomimetics with CXCR4 antagonizing activity” (priority 2003, dated 2014).
Numbered stars: 1 amine (or outer) side, 2 acyl side, 3 side chain; on linkers, the order of the positions; unused ones are H or OH. Bridge positions count the residues as written; N and C are the ends. Square brackets hold non-standard residues; d marks the D form. Peptide text beside a SMILES is read from it. X1 = CC(C)CN(CCC[C@H](N[*:1])C(=O)[*:2])CC(C)C; 2Nal = N[C@@H](Cc1ccc2ccccc2c1)C(=O)O; Cit = NC(=O)NCCC[C@H](N)C(=O)O; Dab = NCC[C@H](N)C(=O)O

What was measured:
[1] = test system: human red blood cells (hRBC); test: Hemolysis; type: cell-based
How it was run: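 Percent lysis taken as OD540 of peptide-treated sample over OD540 of the water/0.1% Triton X-100 full-lysis control, with PBS giving 0%. Peptides at 100 μM exposed to PBS-washed human RBCs (20% v/v) for 1 hour at 37° C. before centrifugation and 20-fold dilution of supernatant.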

[2] = in vitro; type: in vitro ADME; conditions: plasma
Experimental: 405 μl of plasma/albumin solution were placed in a polypropylene (PP) tube and spiked with 45 μl of compound from a 100 μM solution B, derived from 135 μl of PBS and 15 μl of 1 mM peptide in PBS, pH 7.4. 150 μl aliquots were transferred into individual wells of the 10 kDa filter plate (Millipore MAPPB 1010 Biomax membrane). For “0 minutes controls”: 270 μl of PBS were placed in a PP tube and 30 μl of stock solution B was added and vortexed. 150 μl of control solution was placed into one well of the filter plate and serves as “filtered control”.
Further 150 μl of control solution were placed directly into a receiver well (reserved for filtrate) and serve as “not-filtered control”. The entire plate including evaporation lid was incubated for 60 min at 37° C. Plasma samples (rat plasma: Harlan Sera lab UK, human plasma: Blutspendezentrum Zürich) were centrifuged at least for 2 h at 4300 rpm (3500 g) and 15° C. in order to yield 100 μl filtrate. For “serum albumin”-samples (freshly prepared human albumin: Sigma A-4327, rat albumin: Sigma A-6272, all at 40 mg/ml concentration in PBS) approximately 1 hour of centrifugation is sufficient. The filtrates in the receiver PP plate were analysed by LC/MS as followes: Column: Jupiter C18 (Phenomenex), mobile phases: (A) 0.1% formic acid in water and (B) acetonitrile, gradient: 5%-100% (B) in 2 minutes, electrospray ionization, MRM detection (triple quadrupole). The peak areas were determined and triplicate values are averaged. The binding is expressed in percent of the (filtered and not-filtered time point 0 min) control 1 and 2 by: 100−(100*T60/T0). The average from these values is then calculated (see ref. 9 below).

[3] = in vitro; conditions: human
[4] = molecular target: CXCR4 (Homo sapiens, UniProt P61073); test: Ca2+-assay method 2 (Flexstation, SDF-1 induced calcium mobilization); type: cell-based; set-up: expressed in transfected cells; host or cells: mouse pre-B cell line 300-19; conditions: method 2 (Ex. 54-160), mouse pre-B cell line 300-19 with human CXCR4, 10 nM SDF-1; read-out: IC50 (nM) Ca^2+ assay
CXCR4, sequence (P61073 whole entry): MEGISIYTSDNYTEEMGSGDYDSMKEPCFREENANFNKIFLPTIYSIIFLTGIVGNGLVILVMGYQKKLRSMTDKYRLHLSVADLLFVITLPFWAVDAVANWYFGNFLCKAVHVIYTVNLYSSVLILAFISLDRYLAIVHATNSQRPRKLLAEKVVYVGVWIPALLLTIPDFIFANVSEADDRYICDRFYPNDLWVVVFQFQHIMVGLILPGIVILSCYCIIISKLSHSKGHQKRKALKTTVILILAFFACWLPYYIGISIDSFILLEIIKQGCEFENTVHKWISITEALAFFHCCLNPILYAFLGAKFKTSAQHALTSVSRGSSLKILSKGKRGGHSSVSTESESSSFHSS
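Throughout, for GI50: MTT reduction read as absorbance at 595 nm, blank-corrected and expressed as percent growth relative to the time-zero cell reading, triplicate wells per concentration.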

Row | Structure (SMILES) | Hemolysis at 100 μM [1] | half-life at 10 μM ([2]; human) | half-life at 10 μM ([2]; rat) | GI50 at 48 h [3] | IC50 [4]
1 | N=C(N)NCCC[C@@H]1NC(=O)[C@@H]2CSSC[C@H](NC(=O)[C@H](Cc3c[nH]c4ccccc34)NC(=O)[C@H](CCCNC(=N)N)NC(=O)[C@H](CCCNC(=N)N)NC(=O)[C@H]3CCCN3C(=O)CNC1=O)C(=O)N[C@@H](Cc1ccc(O)cc1)C(=O)N[C@@H](CCCNC(N)=O)C(=O)N[C@@H](CC(=O)O)C(=O)N1CCC[C@@H]1C(=O)N1CCC[C@H]1C(=O)N[C@@H](Cc1ccc(O)cc1)C(=O)N[C@@H](CCCNC(=N)N)C(=O)N[C@@H](CO)C(=O)N2 [Ex. 102] (cyclo(YRSCRG[dP]RRWCY[Cit]D[dP]P); disulfide 4-11) | 0.5% | 4.25 h | 4.08 h | 33000 nM | 8 nM
2 | N=C(N)NCCC[C@@H]1NC(=O)[C@@H]2CSSC[C@H](NC(=O)[C@H](Cc3ccc4ccccc4c3)NC(=O)[C@H](CCCNC(=N)N)NC(=O)[C@H](CCCNC(=N)N)NC(=O)[C@H]3CCCN3C(=O)CNC1=O)C(=O)N[C@@H](Cc1ccc(O)cc1)C(=O)N[C@@H](CCC(N)=O)C(=O)N[C@@H](CCC(=O)O)C(=O)N1CCC[C@@H]1C(=O)N1CCC[C@H]1C(=O)N[C@@H](Cc1ccc(O)cc1)C(=O)N[C@@H](CCCNC(=N)N)C(=O)N[C@@H](CCCNC(N)=O)C(=O)N2 [Ex. 61] (cyclo(YR[Cit]CRG[dP]RR[2Nal]CYQE[dP]P); disulfide 4-11) | 0.3% | 4.55 h | > 5 h | > 100000 nM | 4.1 nM
3 | N=C(N)NCCC[C@@H]1NC(=O)[C@@H]2CSSC[C@H](NC(=O)[C@H](Cc3ccc4ccccc4c3)NC(=O)[C@H](CCCNC(=N)N)NC(=O)[C@H](CCCNC(=N)N)NC(=O)[C@H]3CCCN3C(=O)CNC1=O)C(=O)N[C@@H](Cc1ccc(O)cc1)C(=O)N[C@@H](CCC(N)=O)C(=O)N[C@@H](CCC(N)=O)C(=O)N1CCC[C@@H]1C(=O)N1CCC[C@H]1C(=O)N[C@@H](Cc1ccc(O)cc1)C(=O)N[C@@H](CCCNC(=N)N)C(=O)N[C@@H](CCCNC(N)=O)C(=O)N2 [Ex. 60] (cyclo(YR[Cit]CRG[dP]RR[2Nal]CYQQ[dP]P); disulfide 4-11) | 0.1% | > 5 h | > 5 h | 62000 nM | 0.18 nM
4 | N=C(N)NCCC[C@@H]1NC(=O)[C@@H]2CSSC[C@H](NC(=O)[C@H](Cc3ccc4ccccc4c3)NC(=O)[C@H](CCCNC(=N)N)NC(=O)[C@H](CCCNC(=N)N)NC(=O)[C@H]3CCCN3C(=O)CNC1=O)C(=O)N[C@@H](Cc1ccc(O)cc1)C(=O)N[C@@H](CCC(N)=O)C(=O)N[C@@H](CCCCN)C(=O)N1CCC[C@@H]1C(=O)N1CCC[C@H]1C(=O)N[C@@H](CCC(=O)O)C(=O)N[C@@H](CCCNC(=N)N)C(=O)N[C@@H](CCCNC(N)=O)C(=O)N2 [Ex. 68] (cyclo(ER[Cit]CRG[dP]RR[2Nal]CYQK[dP]P); disulfide 4-11) | 0.1% | 2.12 h | 1.35 h | > 100000 nM | 1.1 nM
5 | N=C(N)NCCC[C@@H]1NC(=O)[C@@H]2CCNC(=O)CC[C@H](NC(=O)[C@H](Cc3c[nH]c4ccccc34)NC(=O)[C@H](CCCNC(=N)N)NC(=O)[C@H](CCCNC(=N)N)NC(=O)[C@H]3CCCN3C(=O)CNC1=O)C(=O)N[C@@H](Cc1ccc(O)cc1)C(=O)N[C@@H](CCCNC(N)=O)C(=O)N[C@@H](CCCCN)C(=O)N1CCC[C@@H]1C(=O)N1CCC[C@H]1C(=O)N[C@@H](Cc1ccc(O)cc1)C(=O)N[C@@H](CCCNC(=N)N)C(=O)N[C@@H](CCCNC(N)=O)C(=O)N2 [Ex. 152] (cyclo(YR[Cit][Dab]RG[dP]RRWEY[Cit]K[dP]P); lactam 4-11) | 0% | 0.383 h | 1.43 h | 46000 nM | 4.2 nM
6 | C[C@@H](O)[C@@H]1NC(=O)[C@H](CCCNC(=N)N)NC(=O)[C@H](Cc2ccc(O)cc2)NC(=O)[C@@H]2CCCN2C(=O)[C@H]2CCCN2C(=O)[C@H](CCCCN)NC(=O)[C@H](CCC(N)=O)NC(=O)[C@H](Cc2ccc(O)cc2)NC(=O)[C@@H]2CSSC[C@H](NC1=O)C(=O)N[C@@H](CCCNC(=N)N)C(=O)NCC(=O)N1CCC[C@@H]1C(=O)N[C@@H](CCN)C(=O)N[C@@H](CCCNC(=N)N)C(=O)N[C@@H](Cc1c[nH]c3ccccc13)C(=O)N2 [Ex. 110] (cyclo(YRTCRG[dP][Dab]RWCYQK[dP]P); disulfide 4-11) | 0% | 1.92 h | 4.32 h | 48000 nM | 1.7 nM
7 | N=C(N)NCCC[C@@H]1NC(=O)[C@@H]2CSSC[C@H](NC(=O)[C@H](Cc3ccc4ccccc4c3)NC(=O)[C@H](CCCNC(=N)N)NC(=O)[C@H](CCCNC(=N)N)NC(=O)[C@H]3CCCN3C(=O)CNC1=O)C(=O)N[C@@H](Cc1ccc(O)cc1)C(=O)N[C@@H](CCC(N)=O)C(=O)N[C@@H](CC(=O)O)C(=O)N1CCC[C@@H]1C(=O)N1CCC[C@H]1C(=O)N[C@@H](Cc1ccc(O)cc1)C(=O)N[C@@H](CCCNC(=N)N)C(=O)N[C@@H](CCCNC(N)=O)C(=O)N2 [Ex. 85] (cyclo(YR[Cit]CRG[dP]RR[2Nal]CYQD[dP]P); disulfide 4-11) | 0% | 2.77 h | > 5 h | 94000 nM | 2.7 nM
8 | C[C@@H](O)[C@@H]1NC(=O)[C@H](Cc2c[nH]cn2)NC(=O)[C@H](Cc2ccc(O)cc2)NC(=O)[C@@H]2CCCN2C(=O)[C@H]2CCCN2C(=O)[C@H](CCCCN)NC(=O)[C@H](CCC(N)=O)NC(=O)[C@H](Cc2ccc(O)cc2)NC(=O)[C@@H]2CSSC[C@H](NC1=O)C(=O)N[C@@H](CCCNC(=N)N)C(=O)NCC(=O)N1CCC[C@@H]1C(=O)N[C@@H](CCCNC(=N)N)C(=O)N[C@@H](CCCNC(=N)N)C(=O)N[C@@H](Cc1c[nH]c3ccccc13)C(=O)N2 [Ex. 120] (cyclo(YHTCRG[dP]RRWCYQK[dP]P); disulfide 4-11) | 0% | 0.65 h | 2.9 h | 78000 nM | –
9 | N=C(N)NCCC[C@@H]1NC(=O)[C@@H]2CSSC[C@H](NC(=O)[C@H](Cc3ccc4ccccc4c3)NC(=O)[C@H](CCCNC(=N)N)NC(=O)[C@H](CCCNC(=N)N)NC(=O)[C@H]3CCCN3C(=O)CNC1=O)C(=O)N[C@@H](Cc1ccc(O)cc1)C(=O)N[C@@H](CCC(N)=O)C(=O)N[C@@H](CCCCN)C(=O)N1CCC[C@@H]1C(=O)N1CCC[C@H]1C(=O)N[C@@H](Cc1ccc(O)cc1)C(=O)N[C@@H](CCCNC(=N)N)C(=O)N[C@@H](CCC(=O)O)C(=O)N2 [Ex. 75] (cyclo(YRECRG[dP]RR[2Nal]CYQK[dP]P); disulfide 4-11) | 0% | 3.13 h | 2.37 h | > 100000 nM | 3.5 nM
10 | N=C(N)NCCC[C@@H]1NC(=O)[C@H](CO)NC(=O)[C@H](CCCNC(N)=O)NC(=O)[C@H](CCCNC(=N)N)NC(=O)[C@H](Cc2ccc(O)cc2)NC(=O)[C@@H]2CCCN2C(=O)[C@H]2CCCN2C(=O)[C@H](CCCCN)NC(=O)[C@H](CCCNC(N)=O)NC(=O)[C@H](Cc2ccc(O)cc2)NC(=O)[C@H](CC(N)=O)NC(=O)[C@H](Cc2c[nH]c3ccccc23)NC(=O)[C@H](CCCNC(=N)N)NC(=O)[C@H](CCCNC(=N)N)NC(=O)[C@H]2CCCN2C(=O)CNC1=O [Ex. 151] (cyclo(YR[Cit]SRG[dP]RRWNY[Cit]K[dP]P)) | 0.9% | 1.48 h | 1.18 h | 83000 nM | 4.2 nM
11 | CC(C)CN(CCC[C@@H]1NC(=O)[C@H]2CCCN2C(=O)CNC(=O)[C@H](CCCNC(=N)N)NC(=O)[C@@H]2CSSC[C@H](NC(=O)[C@H](Cc3ccc4ccccc4c3)NC(=O)[C@H](CCCNC(=N)N)NC1=O)C(=O)N[C@@H](Cc1ccc(O)cc1)C(=O)N[C@@H](CCCNC(N)=O)C(=O)N[C@@H](CCCCN)C(=O)N1CCC[C@@H]1C(=O)N1CCC[C@H]1C(=O)N[C@@H](Cc1ccc(O)cc1)C(=O)N[C@@H](CCCNC(=N)N)C(=O)N[C@@H](CCCNC(N)=O)C(=O)N2)CC(C)C [Ex. 124] (cyclo(YR[Cit]CRG[dP][X1]R[2Nal]CY[Cit]K[dP]P); disulfide 4-11) | 0% | > 5 h | > 5 h | 21000 nM | 5.9 nM
